Tests used:
[1] = cited from earlier work
eggs of Trichuris suis = assay: Dyeing of Trichuris suis eggs (TSO) with ageladine A, fluorescence microscopy with UV excitation
Method: Embryonated eggs of Trichuris suis (TSO) according to specification of Ovamed GmbH. The nematode eggs are stored in the refrigerator at from 4 to 8° C. in a phosphate buffer at pH 5 with addition of potassium sorbate. For the tests, the TSO were washed several times in 1×DPBS (re-buffering) and adjusted to a concentration of 1000 TSO/ml.
Ageladine stock solution: 10 mM in MeOH (90%); 1 μl of ageladine was combined with 1000 μl of TSO suspension (see 2.5) in 15 ml tubes. The contents were mixed by gentle shaking and incubated for 10 minutes at ambient temperature in the dark.
The ISO were washed three times in DPBS after being dyed with Ageladine A (see 2.6.2). 10 μl of the samples were placed on object carriers with recesses and covered with glass covers. The object carriers were observed under the microscope Leica SP5 MP with and without UV excitation.

[2] = system: sensitive cells (for example, PC12); settings: cited from earlier work
[3] = cited from earlier work; remark: listed apart in the source

## Nc1nc2ccnc(-c3cc(Br)c(Br)[nH]3)c2[nH]1 [ageladine A]
[1]; fluorescence decreases as the pH value increases
  pH of greatest fluorescence: ~4 pH
[1]; intensive dyes in cells, tissues, organisms
  stability of the dyeing: stable over hours and days
[1]; relatively long incubation times
  tendency to fade: scarcely has any tendency to fade
Eggs of Trichuris suis; eggs normally absorb dyes very poorly
  absorption of the dye by eggs of the whipworm: very rapid
Eggs of Trichuris suis; excitation 370 nm, detection 410-480 nm, 10 minutes incubation at ambient temperature
  proportion of TSO exhibiting fluorescence after incubation with ageladine A: a small percentage
Eggs of Trichuris suis; optical blind test, fourteen TSO, UV excitation
  correlation between eggs marked as defective by morphological criteria and fluorescing eggs: high level of correlation
Eggs of Trichuris suis; ultraviolet excitation, multi-photon microscopy
  fluorescence in degenerated eggs of Trichuris suis: fluoresces
[2]; sensitive cells (for example, PC12), long incubation
  toxicity: not toxic
[2]; whipworm eggs, long incubation time
  cell toxicity after a long incubation time: not cell-toxic
[3]; charged state
  membrane permeability in the charged (protonated, acidic medium) state: membrane-impermeable
[3]
  membrane permeability: high level of membrane-permeability
[3]; uncharged state
  membrane permeability in the uncharged (alkaline medium) state: very rapidly crosses many cell membranes

From US20150132788A1, “ESTABLISHING THE VIABILITY OF BIOLOGICAL SAMPLES” (Ovamed GmbH, priority 2012, published 2015)
